This is an account of results in patent publication US20080039410A1, “Inositol 1,4,5-Trisphosphate Receptor Mutants and Uses Thereof” (priority 2004, published 2008).

Holding throughout (assay type): cell-based, rat
Assay [1] concerns S2− InsP3R-1. The assay is described as follows: Potentiation of CCh-induced Ca2+ release after PKA activation (forskolin), S2− InsP3R-1 constructs in DT-40 3ko cells. Particulars: for effect of forskolin treatment on CCh-induced [Ca^2+]i peak: threshold CCh; for Ca^2+ release after PKA activation: S2 − InsP3R-1 constructs, Table 2. How it is done: (§1) DT-40 cells lacking all three InsP3 receptor subtypes DT-40 3ko were transfected using electroporation, 350 V and 950 μF. 2×10^7 cells were co-transfected with 25 μg of the InsP3R cDNA, 25 μg of the muscarinic type 3 (M3) receptor, and 4 μg of the red fluorescent protein plasmid pHcRed1-N1. Cells were incubated with DNA in 500 μL of Optimem media on ice for 10 minutes. The cell/DNA mixture was electroporated, incubated on ice for 30 minutes, brought up to 5 ml with Optimem and placed in a 5% C02 incubator at 39° C. for 5 hours. The cells were then centrifuged and resuspended in 12 ml of complete RPMI media. Transfection efficiency was typically ˜20%. Experiments were performed within 32 hours of transfection.
(§2) Transfected DT-40 3ko cells were washed once in a HEPES-buffered physiological saline solution (HEPES-PSS) containing (in mM) 5.5 glucose, 137 NaCl, 0.56 MgCl2, 4.7 KCl, 1 Na2HPO4, 10 HEPES (pH 7.4), 1.2 CaCl2 and 1% w/v Bovine Serum Albumin. Cells were then resuspended in BSA HEPES-PSS with 1 μM Fura-2 (AM), placed on a 15 mm glass coverslip in a low volume perfusion chamber (Warner Instruments) and allowed to adhere for 30 minutes at room temperature. Cells were perfused continually for 10 minutes with HEPES-PSS before experimentation to allow Fura-2 de-esterification. A field of cells for each experiment was chosen that contained a wide range of transfection efficiency based upon the intensity of red fluorescence emitted when excited at 560 nm. [Ca^2+]i imaging was performed essentially as previously described using an inverted epifluorescence Nikon microscope with a 40× oil immersion objective lens (numerical aperture, 1.3). Cells were excited alternately with light at 340 and 380 nm (±10 mn bandpass filters, Chroma) using a monochrometer (TILL Photonics). Fluorescence images were captured and digitized with a digital camera driven by TILL Photonics software. Images were captured every 2 seconds with an exposure of 35 ms and no binning. 340/380 ratio images were calculated online and stored immediately to hard disk.
(§3) The effects of treatment were determined by normalizing the peak change in fluorescence ratio by stimulation following forskolin or 8-Br cGMP exposure to that of stimulation in control HEPES-PSS. Thus, pooled data represents a normalized fold increase over control for the treated trial. Two tailed heteroscedastic t-tests with P values<0.05 were considered to have statistical significance.
Similar experimental paradigms were employed to assess the effect of PKA-induced phosphorylation on a homogeneous population of S2^− InsP3R-1.
(§4) The effects of treatment were determined by normalizing the peak change in fluorescence ratio by stimulation following forskolin or 8-Br-cGMP exposure to that of stimulation in control HEPES-PSS. Thus, pooled data represent a normalized fold increase over control for the treated trial. In all cases where statistical significance is indicated, two-tailed heteroscedastic t tests were performed. P values<0.05 were considered to indicate statistical significance and are denoted by an asterisk in the figures.
The enhanced apparent sensitivity of individual phosphomimetic mutants was essentially equal and intermediate between the sensitivity of the S2−WT and S2−EE mutations. […] To address this possibility directly, experiments were performed evaluating the effects of activating endogenous PKA in cells expressing S2−SE or S2−ES to mimic prior phosphorylation of an individual site. […] To test this, experiments were performed to determine the phosphorylation state of the various mutants after raising cAMP levels. These experiments were performed in HEK-293 cells because of the high transfection efficiency and low endogenous levels of InsP3R-1 (47, 99). […]

Assay [2] has as its system S2+ InsP3R-1. The assay is described as follows: Potentiation of CCh-induced Ca2+ release after PKA activation (forskolin), S2+ InsP3R-1 constructs in DT-40 3ko cells. Particulars: for effect of forskolin treatment on CCh-induced [Ca^2+]i peak: 20 μM forskolin, threshold CCh; for Ca^2+ release after PKA activation: S2 + InsP3R-1 constructs, Table 2. The procedure: as §1, §2, §3
Experiments were performed in DT-40 3ko cells transfected with S2^+ InsP3R-1. Since there are no reports of Gαq coupled receptors expressed in DT-40 cells, initial experiments were performed eliciting [Ca^2+]i changes by stimulating the endogenous B cell receptor with α-IgM antibody. […] Thus, in all further experiments, DT-40 3ko cells were co-transfected with the M3 receptor, and HcRed to facilitate identification of transfected cells (inset FIG. 1). Stimulation of M3 receptors with the muscarinic agonist carbachol (CCh), provided a convenient means of stimulating [Ca^2+]i changes, presumably through Gαq-induced activation of phospholipase C and production of InsP3. […] The potentiation was most marked when threshold elevations in [Ca^2+]i were evoked by the initial exposure to CCh and therefore only cells in which the initial CCh treatment evoked a Δ 340/380 ratio of<0.2 ratio units were included for analysis. […] [Ca^2+]i changes were never evoked by CCh treatment in cells transfected with only M3 cDNA in the absence of InsP3R or likewise InsP3R with no M3 cDNA.
The effects of treatment were determined by normalizing the peak change in fluorescence ratio by stimulation following forskolin or 8-Br-cGMP exposure to that of stimulation in control HEPES-PSS. Thus, pooled data represent a normalized fold increase over control for the treated trial. In all cases where statistical significance is indicated, two-tailed heteroscedastic t tests were performed. […]

The subject of assay [3] is S2+ InsP3R-1. The assay is described as follows: Potentiation of CCh-induced Ca2+ release after PKG activation (8-Br cGMP), S2+ InsP3R-1 constructs in DT-40 3ko cells. Particulars: for effect of 8-Br cGMP treatment on CCh-induced Ca^2+ release: 10 μM 8-Br cGMP, threshold CCh; for Ca^2+ release after PKG activation: S2 + InsP3R-1 constructs, Table 2. How it is done:
as §2, §3
Similar experiments were performed to assess the effects on Ca^2+ release of phosphorylating InsP3R-1 with PKG. Cells transfected with S2^+ InsP3R-1 together with M3 receptor and HcRed were stimulated with low, threshold concentrations of CCh (25-50 nM) followed by a 10 min treatment with 10 μM 8-Br cGMP, a specific activator of PKG [48]. […] In a similar fashion to PKA activation, this was manifested as an increase in the CCh-induced initial peak (FIG. 4A and pooled data FIG. 4E).
as §4
Despite these differences, experiments were performed to define further the phosphorylation sites important for regulation of Ca^2+ release by PKG. […] In contrast, in cells expressing S2+SE no effect on CCh-induced Ca^2+ release following activation of PKG was observed (FIG. 23C and pooled data in FIG. 23D).

Values joined by “and” are separate entries in the source; they are usually repeats but may differ in a detail not shown here. Equal values may be shown once. “Also recorded” adds a separate entry of the source.

With “G1690A: InsP3R-1 S2− variant with glycine to alanine substitution at position 1690 (nucleotide binding site mutant)”, the “effect of forskolin treatment on CCh-induced [Ca^2+]i peak” value (shortened to “effect of forskolin treatment”) in assay [1] (20 μM forskolin) was “strikingly absent; also recorded: fails to potentiate”.
Consider “S2+ES: S2+ InsP3R-1, long splice variant with S1589E”, for which, in assay [2], the “effect of forskolin treatment” value is listed as “marked potentiation; also recorded: markedly potentiated” and the “Ca^2+ release after PKA activation” value is recorded as “Enhanced”. In assay [3], the “effect of 8-Br cGMP treatment on CCh-induced Ca^2+ release” value is recorded as “markedly potentiated” and the “Ca^2+ release after PKG activation” value is recorded as “enhanced”.
Taken in the same sequence, the figures for “S2+SE: phosphomimetic S2+ InsP3R-1, long splice variant of S1755E” were “no further potentiation”, “No change”, “no effect; also recorded: no potentiation” and “no change”.
Regarding “S2−EE: phosphomimetic S1589E/S1755E mutant of the short splice variant”, the “effect of forskolin treatment” value in assay [1] (20 μM forskolin) is recorded as “no potentiation”. In assay [1], the “Ca^2+ release after PKA activation” value is on record as “No change/NT”.
For “S2−ES: phosphomimetic short splice variant S1589E”, in assay [1] (20 μM forskolin), the “effect of forskolin treatment” value was “no potentiation”. Besides, the “Ca^2+ release after PKA activation” value in assay [1] is “No change/NT”.
On to “S2−SE: phosphomimetic short splice variant of S1755E”, for which, in assay [1] (20 μM forskolin), the “effect of forskolin treatment” value was “no potentiation”. For the same substance, the “Ca^2+ release after PKA activation” value in assay [1] is reported as “No change/NT”.
As for “S2−WT: wild-type rat type-1 InsP3 receptor, peripheral short S2− splice variant (SEQ ID NO: 17)”, the “effect on subsequent CCh-induced Ca^2+ release” value in assay [1] (100 nM, 500 nM or 1 μM forskolin) is recorded as “failed to enhance”. Moreover, the “fold potentiation of Ca^2+ release” value in assay [1] (5 μM forskolin (threshold concentration)) is 1.26±0.21 fold. Besides, in assay [1] (20 μM forskolin, Fura-2, listed as wild-type S2^− InsP3R-1), the “fold increase in CCh-induced Ca^2+ release in the presence of forskolin” value is ~3 fold and ~4 fold. Further, the “effect of forskolin treatment” value in assay [1] (20 μM forskolin) was “dramatic potentiation; also recorded: markedly potentiated”; in assay [1] (20 μM forskolin, listed as S2^− InsP3R-1) it was “potentiated Ca^2+ release”; in assay [1] (20 μM forskolin, listed as wild type S2^− InsP3R-1), “enhanced CCh stimulated Ca^2+ release”; in assay [1] (20 μM forskolin, listed as wild-type S2^− InsP3R-1) it was “marked potentiation”. Also, the “Ca^2+ release after PKA activation” value in assay [1] was “Enhanced”.
